Reference: ChEMBL document CHEMBL4414674, “Paraconiothins A-J: Sesquiterpenoids from the Endophytic Fungus Paraconiothyrium brasiliense ECN258” (J Nat Prod, 2019)
The source made the active and inactive calls. The rule behind the calls is not given here.

Columns and labels:
Format in all cases: cell-based
[1] = target: T1, Retinoic acid receptor alpha (Homo sapiens) (UniProt P10276); assay: Inhibition of human RARalpha transfected in human HEK293 cells co-expressing CMV-beta galactosidase assessed as effect on beta-galactosidase activity at 50 uM after 48 hrs by luciferase reporter gene assay
T1 sequence (whole entry): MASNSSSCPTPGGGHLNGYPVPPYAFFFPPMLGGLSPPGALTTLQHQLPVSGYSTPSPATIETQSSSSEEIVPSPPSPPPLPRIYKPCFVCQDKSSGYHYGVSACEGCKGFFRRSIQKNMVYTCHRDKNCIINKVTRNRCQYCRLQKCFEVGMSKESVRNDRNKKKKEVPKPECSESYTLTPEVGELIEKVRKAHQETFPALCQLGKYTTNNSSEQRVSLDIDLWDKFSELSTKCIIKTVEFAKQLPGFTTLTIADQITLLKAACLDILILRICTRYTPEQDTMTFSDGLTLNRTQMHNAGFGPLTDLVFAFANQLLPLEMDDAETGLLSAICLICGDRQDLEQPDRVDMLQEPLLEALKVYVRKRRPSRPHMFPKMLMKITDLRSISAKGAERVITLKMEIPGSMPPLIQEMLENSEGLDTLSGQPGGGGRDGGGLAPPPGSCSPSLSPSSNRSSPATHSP

[2] = target: T2, Peroxisome proliferator-activated receptor gamma (Homo sapiens) (UniProt P37231); assay: Inhibition of PPARgamma (unknown origin) transfected in human HEK293 cells co-expressing CMV-beta galactosidase assessed as effect on beta-galactosidase activity at 50 uM after 48 hrs by luciferase reporter gene assay
T2 sequence (whole entry): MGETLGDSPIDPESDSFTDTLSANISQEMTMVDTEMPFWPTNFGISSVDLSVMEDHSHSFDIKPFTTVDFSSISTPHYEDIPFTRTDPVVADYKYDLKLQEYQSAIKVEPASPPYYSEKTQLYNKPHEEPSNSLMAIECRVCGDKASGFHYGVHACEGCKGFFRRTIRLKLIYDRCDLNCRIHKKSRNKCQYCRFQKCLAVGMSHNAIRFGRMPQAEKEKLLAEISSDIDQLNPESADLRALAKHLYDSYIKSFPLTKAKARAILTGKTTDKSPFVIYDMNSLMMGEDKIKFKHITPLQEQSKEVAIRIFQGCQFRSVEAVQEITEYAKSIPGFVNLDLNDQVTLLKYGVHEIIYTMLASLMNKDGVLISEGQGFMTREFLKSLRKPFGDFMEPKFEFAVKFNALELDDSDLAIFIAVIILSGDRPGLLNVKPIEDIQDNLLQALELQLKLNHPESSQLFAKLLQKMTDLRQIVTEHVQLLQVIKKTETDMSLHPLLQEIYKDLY

[3] = target: T3, Peroxisome proliferator-activated receptor delta (Homo sapiens) (UniProt Q03181); assay: Inhibition of PPARdelta (unknown origin) transfected in human HEK293 cells co-expressing CMV-beta galactosidase assessed as effect on beta-galactosidase activity at 50 uM after 48 hrs by luciferase reporter gene assay
T3 sequence (whole entry): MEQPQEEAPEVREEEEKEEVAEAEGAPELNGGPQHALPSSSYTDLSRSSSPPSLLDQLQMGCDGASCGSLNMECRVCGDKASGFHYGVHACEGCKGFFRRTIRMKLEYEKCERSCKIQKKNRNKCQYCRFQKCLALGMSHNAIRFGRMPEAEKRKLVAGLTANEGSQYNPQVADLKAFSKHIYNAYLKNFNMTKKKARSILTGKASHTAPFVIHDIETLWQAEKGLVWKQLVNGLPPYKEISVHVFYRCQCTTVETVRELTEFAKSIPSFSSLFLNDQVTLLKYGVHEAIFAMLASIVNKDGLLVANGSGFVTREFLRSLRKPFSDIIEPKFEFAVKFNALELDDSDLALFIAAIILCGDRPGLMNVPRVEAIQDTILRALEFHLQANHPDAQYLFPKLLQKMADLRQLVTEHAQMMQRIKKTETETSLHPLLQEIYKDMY

[4] = target: T4, Oxysterols receptor LXR-alpha (Homo sapiens) (UniProt Q13133); assay: Inhibition of human LXRalpha transfected in human HEK293 cells co-expressing CMV-beta galactosidase assessed as inhibition on T0901317 response at 50 uM after 48 hrs by luciferase reporter gene assay
T4 sequence (whole entry): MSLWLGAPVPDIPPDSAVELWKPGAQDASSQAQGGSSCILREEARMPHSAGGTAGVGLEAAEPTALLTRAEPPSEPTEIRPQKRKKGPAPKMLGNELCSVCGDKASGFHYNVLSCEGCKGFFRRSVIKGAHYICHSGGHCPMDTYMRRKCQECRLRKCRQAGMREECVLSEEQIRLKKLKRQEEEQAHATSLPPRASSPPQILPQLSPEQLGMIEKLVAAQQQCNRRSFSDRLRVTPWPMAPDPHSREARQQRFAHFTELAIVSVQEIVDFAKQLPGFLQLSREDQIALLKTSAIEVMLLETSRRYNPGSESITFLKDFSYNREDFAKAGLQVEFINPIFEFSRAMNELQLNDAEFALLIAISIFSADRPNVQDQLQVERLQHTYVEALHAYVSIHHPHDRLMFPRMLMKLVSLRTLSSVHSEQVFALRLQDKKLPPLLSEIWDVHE

[5] = test system: HEK293; assay: Cytotoxicity against human HEK293 cells

Compound | inhibition [1] | inhibition [2] | inhibition [3] | inhibition [4] | Activity [5]
C=C(CO)[C@@]12O[C@@H]1[C@@]1(C)C(=C[C@@H]2O)[C@H](O)CC[C@@H]1C | inactive | inactive | inactive |  | 
C=C(CO)[C@]12O[C@H]1[C@]1(C)C(=C[C@H]2OC(C)=O)CCC[C@H]1C | inactive | inactive | inactive |  | 
C=C(CO)c1ccc([C@@H](C)C[C@@H](O)CO)c(C)c1 (relative stereo) | inactive | inactive | inactive | Active | Non-Toxic
C=C(CO)[C@H]1CC=C2CC[C@@H](O)[C@H](C)[C@@]2(C)C1 | inactive | inactive | inactive | Active | Non-Toxic
C=C(CO)[C@H]1C[C@@]2(C)C(=C[C@@H]1O)C[C@H](O)C[C@@H]2C | inactive | inactive | inactive |  | 
C[C@H]1CC(=O)C=C2C=CC(=C(CO)CO)[C@H](O)[C@@]21C | inactive | inactive | inactive |  | 
C=C(CO)[C@@]12O[C@@H]1[C@@]1(C)C(=CC2=O)C[C@H](O)C[C@@H]1C | inactive | inactive | inactive |  | 
C=C(CO)c1ccc2c(c1C)[C@@H](C)C[C@H](O)C2=O | inactive | inactive | inactive |  | 
C=C(CO)c1ccc([C@@H](O)[C@H](O)/C=C/C)c(C)c1 (relative stereo) | inactive | inactive | inactive |  | 
C=C(CO)[C@@]12O[C@@H]1[C@@]1(C)C(=C[C@@H]2O)C=C[C@@H](O)[C@@H]1C | inactive | inactive | inactive |  | 
C=C(CO)[C@@]12O[C@@H]1[C@@]1(C)C(=C[C@@H]2OC(C)=O)C=C[C@@H](O)[C@@H]1C | inactive | inactive | inactive |  | 
C=C(CO)[C@@H]1CC=C2C[C@@H](O)[C@H](O)[C@@H](C)[C@]2(C)C1 (relative stereo) | inactive | inactive | inactive |  | 
C=C(CO)[C@@]12O[C@@H]1[C@@]1(C)C(=C[C@@H]2OC(C)=O)CC[C@@H](O)[C@@H]1C (relative stereo) | inactive | inactive | inactive |  | 
